These results are taken from US20030162803A1, “Anhydrovinblastine for the treatment of cancer” (priority 1997, published 2003).

One series deals with SK0V3 cells. Briefly: Cytotoxicity assay, SKOV3 (FIG. 8). Format: cell-based. The settings on record: 3 day incubation. The procedure: (§1) The IC50s for the SK0V3 and C-4 cells were 4.0 μM and 0.02 μM respectively. Both cell lines were obtained from the ATCC and grown using standard growth techniques and medium as described above. The IC50s were determined through standard cytoxicity assays described above, with each well containing approximately 10^4 cells.

For series [1], the system named is advanced refractory solid tumors. As to the kind of experiment: Phase I clinical trial, disease response. It is filed as in vivo, human patients. The procedure:
Patients had normal bone marrow, hepatic and renal function. Twenty-four patients were treated with escalating doses of AHVB, administered as a 1 hour infusion every 3 weeks. The 24 patients comprised 12 male and 12 female patients with a median age of 60 years (range 27-75 years). Twenty-one of the 24 patients were evaluable. Diagnoses were non-small cell lung cancer (NSCLC), colorectal cancer, soft tissue sarcoma, pancreatic cancer, breast cancer and metastatic neuroendocrine cancer in 11, 5, 4, 1, 1, and 1 patient(s), respectively. […] A total of 51 courses were administered at doses of 2.5, 5, 10,16.5, 21,25 and 30 mg/m^2 to 1,3, 1,3, 6, 6 and 1 patient(s), respectively (see Table 4).

The next series relates to C-4 cells. As to the kind of experiment: Cytotoxicity assay, C-4 (FIG. 8). It is filed as cell-based, human. The settings on record: 3 day incubation. The procedure:
as §1

Series [2] has as its system H460 human non-small cell lung carcinoma tumor xenograph. As to the kind of experiment: H460 SC tumor mouse model. It is filed as in vivo, SCID/Rag-2 mice. The procedure: Cultures of H460 Human Lung cells are available from the British Columbia Cancer Research Center. Cells were injected subcutaneously twice into mature male Rag-2 mice (24 mice, 1×10^6 cells/mouse) using a 26-gauge needle. The H460 cells were suspended in a Hank's Balanced Salt Solution without calcium. Tumors were allowed to form in the mice for 11 days.
When the tumors were well established, four separate groups of mice, were selected for administration of the three test articles (i.e. one group for each test article of AHVB bisulphate, AHVB ditartrate, and Navelbine™) and one control.
AHVB bisulphate and ditartrate, and Navelbine™ were solubilized using 5% dextrose saturated with Argon. Both of these articles were at a concentration of 20 mg/ml. Any dose dilutions were made with 5% dextrose.
The articles were administered intravenously on the days 1, 5 and 9, as were controls of 5% dextrose. Body weights and tumor measurements with calipers were taken every day for the first 10 days and then every other day for the remainder of the study.
Following administration of the test articles, the animals; weight and tumor size (using calipers) were determined daily for the first 10 days and then every other day for the remainder of the study. If the tumor size reached 1 gram in weight or the tumor started to ulcerate, the animals were sacrificed (by carbon dioxide inhalation) and subjected to necropsy. Animals were also monitored at least daily for signs of stress for the full length of the study. Animals manifesting severe symptoms of stress (rapid weight loss, panting, hunched posture, scruffy coat) were also sacrificed and a necropsy performed.
The results of the efficacy studies are given in FIG. 9 and present averages of data from 6 or fewer animals. […] Each tumor was measured in length and width and the volume of each tumor was calculated by […]. […] The calculation was performed each day the tumors were measured. The standard deviation of the mean and the standard error of the mean were calculated with the error bars appearing in the graph in FIG. 9. […]

Where [3] appears, read: IV 10 mg/kg and 20 mg/kg on days 1, 5 and 9.

As to `CCC1=C[C@H]2CN(CCc3c([nH]c4ccccc34)[C@@](C(=O)OC)(c3cc4c(cc3OC)N(C)[C@H]3[C@@](O)(C(=O)OC)[C@H](OC(C)=O)[C@]5(CC)C=CCN6CC[C@]43[C@@H]65)C2)C1` [AHVB, 3′,4′-anhydrovinblastine], the IC50 was found to be 4 µM in the series with SK0V3 cells and 0.02 µM in the series with C-4 cells. For the same compound, the stable disease result was “three patients” in series [1] (metastatic NSCLC, 21 and 25 mg/m^2); “one patient” in series [1] (metastatic sarcoma to lungs, 10 mg/M^2). Also, the “toxicity compared with Navelbine” value in series [2] (setting [3]) is on record as “less toxic than Navelbine™”. For the same compound, the “tumor growth inhibition compared with Navelbine” value in series [2] (setting [3]) was “greater tumor growth inhibition”. In series [2] (human tumor xenografts of NSCLC, equitoxic doses), the “activity compared with vincristine and vinorelbine” value was “superior activity to that of both vincristine and vinorelbine”.

A word on the IC50: it is the concentration needed to halve the response being measured. Read a high IC50 as a need for much substance.
